According to patent publication US20220315895A1, “METHODS OF MAKING OLIGOPOTENT AND UNIPOTENT PRECURSORS” (Transfusion Health, LLC, priority 2019, published 2022):

What was measured:
Type in all cases: cell-based, human
[1] = test system: expanded cord blood CD34+ cells, granulocyte precursor populations; assay: Granulocyte Differentiation Culture, precursor phenotyping (Example 39)
Description: The remaining cells from duplicate flasks were pooled, and CD34+ cells were re-enriched using the CD34 MicroBead Kit—UltraPure (Miltenyi Biotec). CD34 purity was verified by flow cytometry. Enriched CD34+ cells were then placed into Granulocyte Differentiation Culture, described below.
Granulocyte Differentiation Cultures were initiated prior to culture in Compound 1.010 (Unexpanded Granulocyte Differentiation Culture), following 21 days of culture in Compound 1.010 (+Formula I-expanded Differentiation Culture), or following 21 days of culture in Control condition (Control-expanded Differentiation Culture). Purified CD34+ cells were plated at 1000 cells per well in a 48-well plate, in granulocyte differentiation medium, made by combining StemSpan SFEM and StemSpan 100X Myeloid Expansion Supplement (formulated for differentiation of granulocytes) containing SCF, TPO, G-CSF, and GM-CSF (STEMCELL). Cells were plated in 300 μl/well. Unexpanded cells were plated in triplicate; Formula I and Control-expanded cells were plated in quadruplicate. Plates were then placed in a humidified incubator at atmospheric oxygen and 5% CO2. Exact cell numbers dispensed per well were quantified with flow cytometry for later calculations.
On days 7, and 10, additional differentiation medium was prepared and cells were passaged to fresh wells.
On days 7 and 13 of Granulocyte Differentiation Culture, a portion of the culture was removed for analysis and quantification of granulocyte differentiation via flow cytometry. Cells were stained with antibodies to CD16, CD15, CD14, CD13, CD11b, and CD34. Cells were gated into granulocyte precursor populations of promyelocyte (CD34−/CD14−/CD15+/CD16-/CD13high/CD11b−), myelocyte (CD34−/CD14−/CD15+/CD16−/CD13dim/CD11b+) and “metamyelocyte+” (CD34−/CD14−/CD15+/CD11b+/CD13+/CD16+). Promyelocyte is the least mature subset, myelocytes are at an intermediate level of maturity, and “metamyelocyte+” encompasses cells at the highest levels of granulocyte maturation, including metamyelocytes and mature neutrophils. Fractional representation and total numbers of granulocyte precursor subsets were calculated. Cell numbers calculated at day 13 account for passaging.

[2] = test system: expanded cord blood CD34+ cells, megakaryocyte lineage (CD41, CD42b); assay: Megakaryocyte Differentiation Culture after Expansion Culture (Example 38)
Protocol: At days 21 and 63, CD34+ enriched cells were placed into Differentiation Cultures, described below.
Differentiation cultures were initiated using Erythroid, Myeloid (granulocyte and monocyte), and Megakaryocyte HemaTox kits from STEMCELL technologies following the manufacturer's instructions. In brief, lineage media was prepared by adding cytokine cocktails for erythrocyte (SCF, IL-3, and EPO), myeloid (i.e. mixed granulocyte/monocyte, SCF, TPO, G-CSF, and GM-CSF) or megakaryocyte (SCF, IL-6, IL-9 and TPO) lineage differentiation to their respective kits' media, then adding approximately 30-100 CD34+ cells for erythroid or myeloid cultures, or 300-1000 CD34+ cells for megakaryoid cultures. Exact cell numbers plated were quantified for later analysis. All incubations for Differentiation Culture took place at 3% oxygen (controlled by nitrogen) and 5% CO2.
Following seven days of erythroid or myeloid cultures, or ten days for megakaryoid cultures, differentiated cell output was quantified using flow cytometry. Erythroid output was quantified using anti-CD71 and anti-CD235a antibodies, and megakaryocyte lineage output was quantified using anti-CD41 and anti-CD42b antibodies. Granulocyte and monocyte lineage outputs were assessed in tandem, using CD14 and CD15 antibodies, with granulocyte lineage cells being CD15+/CD14−, and monocyte lineage cells being CD14+/CD15−.
A number of quantities were calculated to assess the effect of expansion of CD34+ cells in the +Formula I Condition on the output of lineage differentiated cells. “Per-Assayed-CD34+ Cell Output” describes the output of differentiated cells per CD34+ cell placed into Differentiation Culture, and is calculated by dividing the total number of lineage-positive cells by the input CD34+ cell number quantified at Differentiation Culture initiation at day 1, 21, or 63. […]

CD15+/CD14− cells = assay: Phagocytosis assay with pHrodo green Staphylococcus aureus Bioparticles (Example 39); details: +Formula I Granulocyte Differentiation Cultures, day 13; 45 minutes at 37° C.
Protocol: On day 13 of Granulocyte Differentiation Culture, a portion of the culture was removed for in vitro analysis of granulocyte function through two separate assays for phagocytosis and respiratory burst. In the phagocytosis assay, the function of the cultured cells in ingesting bacteria was measured. pHrodo green Staphylococcus aureus Bioparticles (ThermoFisher), which fluoresce only when in an acidic environment such as a cellular phagosome following phagocytosis, were first treated with an opsonizing reagent to mark the particles for phagocytosis. The particles were then added to cells and incubated at 37° C. for 45 minutes. “Ice” control samples were incubated on ice during this period to prevent endocytosis and enable a measure of background fluorescence. Following this incubation, cells were stained with antibodies to CD15 and CD14, washed thoroughly, then analyzed via flow cytometry on an Attune flow cytometer. CD15+/CD14− cells were quantified for presence of phagocytosed particles.

[3] = +Formula I Conditions, 13 days in Granulocyte Differentiation Culture, N 4
[4] = Formula I-expanded (21 days), seven days Granulocyte Differentiation Culture

CC(C)(C)C(=O)Nc1ccc2c(c1)C(O)c1ccccc1-2 (stereo not shown) [Compound 1.010]
Metamyelocyte+, Mean % of CD15+ cells [1, 3]: 35.2% | Myelocyte, Mean % of CD15+ cells [1, 3]: 36.8% | Promyelocyte, Mean % of CD15+ cells [1, 3]: 28% | cells remaining undifferentiated, without expression of CD15 [1, 4]: 20% | cells still expressing CD34 [1, 4]: 1.9% | cells with high CD16 indicative of full differentiation to neutrophils [1, 4]: No cells were detected with high CD16 | metamyelocytes (CD34−/CD14−/CD15+/CD13+/CD11b+/CD16+), of cultured cells [1, 4]: 8% | myelocytes (CD34−/CD14−/CD15+/CD13low/CD11b+/CD16−), of cultured cells [1, 4]: 15% | promyelocytes (CD34−/CD14−/CD15+/CD13+/CD11b−/CD16−), of cultured cells [1, 4]: 55% | fold increase of per-expanded-day-1-CD34+ cell output, total megakaryocyte lineage, over uncultured cells ([2]; +Formula I expansion to day 21, then 10 days differentiation): 18 fold | fold increase of per-expanded-day-1-CD34+ cell output, total megakaryocyte lineage, over uncultured cells ([2]; +Formula I expansion to day 63, then 10 days differentiation): 3,400 fold | CD42b+ cells of CD41+ cells ([2]; Formula I-expanded, either 21 or 63 days of prior Expansion Cell Culture, Megakaryocyte Differentiation Culture): approximately 50% | CD15+ cells positive for phagocytosed particles (CD15+/CD14− cells): 89%
